{"source": "patent US20060069132A1", "about": "“Azolecarboxamide herbicides” (priority 2004, published 2006)", "key": {"[1]": {"system": "barnyardgrass", "experiment": "Test C flooded paddy test", "type": "in vivo, Echinochloa crus-galli", "outline": "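Weeds and wheat were sprayed after emergence, at a height of 2 to 18 cm (1–4 leaves), and paddy barnyardgrass was flooded and treated at two leaves. Assessment took place 12–14 days later in the greenhouse on a 0-to-100 visual control scale. A dash means no result was obtained.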"}, "[2]": {"system": "barnyardgrass", "experiment": "Test B pre-/postemergence herbicide test", "type": "in vivo, Echinochloa crus-galli", "details": "for Barnyardgrass plant response rating: postemergence, scale 0 (no effect) to 100 (complete control)", "outline": "(§1)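 Species tested were Echinochloa crus-galli, Ipomoea coccinea, Xanthium strumarium and Oryza sativa, treated both before emergence and at the 1- to 4-leaf stage; rice and barnyardgrass were also tested under flooding at 2 leaves. Greenhouse incubation lasted 13–15 days before visual 0–100 scoring.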"}, "[3]": {"system": "pigweed", "experiment": "Test B pre-/postemergence herbicide test", "type": "in vivo, Amaranthus retroflexus", "details": "for Pigweed plant response rating: postemergence", "outline": "(§2)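 Herbicidal effect was judged by eye on a 0–100 scale after plants stood 13 to 15 days in the greenhouse following pre- or postemergence treatment with surfactant-containing formulations.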"}, "[4]": {"system": "small flower umbrella sedge", "experiment": "Test B flooded paddy test", "type": "in vivo, Cyperus difformis", "details": "1000 g ai/ha, scale 0 to 100 (0 no effect, 100 complete control)", "outline": "(§3)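 Plants grow to 1- to 4-leaf stage (2–18 cm) for postemergence spraying, or to 2-leaf stage for the paddy test. Formulated compound is applied. Greenhouse holding lasts 13–15 days. Response is scored visually relative to controls, 0 no effect to 100 complete control; a dash means no result.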"}, "[5]": {"system": "rice", "experiment": "Test C flooded paddy test", "type": "in vivo, Oryza sativa", "outline": "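Plants were grown to the 1- to 4-leaf stage (2–18 cm) and then treated postemergence, or grown to the 2-leaf stage for the flooded paddy test. They were held in a greenhouse for 12 to 14 days and then scored by eye against controls, where 0 is no effect and 100 is complete control.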"}, "[6]": {"system": "rice", "experiment": "Test B pre-/postemergence herbicide test", "type": "in vivo, Oryza sativa", "details": "0 = no effect, 100 = complete control, preemergence", "outline": "as §2"}, "[7]": {"system": "wild oat", "experiment": "Test B postemergence herbicide test", "type": "in vivo, Avena fatua", "details": "postemergence", "outline": "(§4)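 After treating 2-leaf paddy plants or 2–18 cm postemergence plants (1 to 4 leaves) with formulated chemical, researchers kept them in a greenhouse for 13–15 days. Effects were judged visually versus controls: 0 indicates none, 100 total control.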"}, "[8]": {"system": "giant foxtail", "experiment": "Test B pre-/postemergence herbicide test", "type": "in vivo, Setaria faberi", "details": "for Foxtail, Giant plant response rating: postemergence", "outline": "as §2"}, "[9]": {"system": "blackgrass", "experiment": "Test B postemergence herbicide test", "type": "in vivo, Alopecurus myosuroides", "details": "postemergence, visual rating, scale 0 (no effect) to 100 (complete control)", "outline": "as §3"}, "[10]": {"system": "Surinam grass", "experiment": "Test B pre-/postemergence herbicide test", "type": "in vivo, Urochloa decumbens", "details": "for Surinam Grass plant response rating: postemergence", "outline": "as §2"}, "[11]": {"system": "velvetleaf", "experiment": "Test B pre-/postemergence herbicide test", "type": "in vivo, Abutilon theophrasti", "details": "for Velvetleaf plant response rating: postemergence", "outline": "as §2"}, "[12]": {"system": "ducksalad", "experiment": "Test B flooded paddy test", "type": "in vivo, Heteranthera limosa", "details": "1000 g ai/ha, scale 0 to 100 (0 no effect, 100 complete control)", "outline": "as §3"}, "[13]": {"system": "barnyardgrass", "experiment": "Test B flooded paddy test", "type": "in vivo, Echinochloa crus-galli", "details": "1000 g ai/ha, scale 0 to 100 (0 no effect, 100 complete control)", "outline": "as §3"}, "[14]": {"system": "large crabgrass", "experiment": "Test B pre-/postemergence herbicide test", "type": "in vivo, Digitaria sanguinalis", "details": "for Crabgrass, Large plant response rating: postemergence", "outline": "as §2"}, "[15]": {"system": "ducksalad", "experiment": "Test C flooded paddy test", "type": "in vivo, Heteranthera limosa"}, "[16]": {"system": "smallflower umbrella sedge", "experiment": "Test C flooded paddy test", "type": "in vivo, Cyperus difformis"}, "[17]": {"system": "wheat", "experiment": "Test B postemergence herbicide test", "type": "in vivo, Triticum aestivum", "design": "key to Wheat plant response rating: 0 = no effect, 100 = complete control", "details": "postemergence", "outline": "as §4"}, "[18]": {"system": "corn", "experiment": "Test B pre-/postemergence herbicide test", "type": "in vivo, Zea mays", "details": "for Corn plant response rating: postemergence", "outline": "as §2"}, "[19]": {"system": "morningglory", "experiment": "Test B pre-/postemergence herbicide test", "type": "in vivo, Ipomoea coccinea", "details": "for Morningglory plant response rating: postemergence", "outline": "as §1"}, "[20]": {"system": "cocklebur", "experiment": "Test B pre-/postemergence herbicide test", "type": "in vivo, Xanthium strumarium", "details": "for Cocklebur plant response rating: postemergence, scale 0 (no effect) to 100 (complete control)", "outline": "as §1"}, "[21]": {"system": "lambsquarters", "experiment": "Test B pre-/postemergence herbicide test", "type": "in vivo, Chenopodium album", "details": "for Lambsquarters plant response rating: postemergence", "outline": "as §2"}, "[22]": {"system": "rice", "experiment": "Test B flooded paddy test", "type": "in vivo, Oryza sativa", "details": "1000 g ai/ha, scale 0 to 100 (0 no effect, 100 complete control)", "outline": "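Treated at 2-leaf (paddy) or 1–4-leaf, 2–18 cm (postemergence); greenhouse 13–15 d; visual score vs control, 0 none to 100 complete control; dash = not tested.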"}, "[23]": {"details": "62 g ai/ha, scale 0 to 100 (0 no effect, 100 complete control)"}, "[24]": {"details": "125 g ai/ha, scale 0 to 100 (0 no effect, 100 complete control)"}, "[25]": {"details": "250 g ai/ha, scale of 0 to 100, 0 is no effect, 100 is complete control"}, "[26]": {"details": "500 g ai/ha, visual rating after 12 to 14 days, scale 0 to 100 (0 no effect, 100 complete control)"}, "[27]": {"details": "125 g ai/ha, 0 = no effect, 100 = complete control, preemergence"}, "[28]": {"details": "500 g ai/ha, visual rating, 0 = no effect, 100 = complete control, preemergence"}, "[29]": {"details": "125 g ai/ha, visual rating, scale 0 (no effect) to 100 (complete control)"}, "[30]": {"details": "500 g ai/ha, scale 0 to 100, 0 is no effect, 100 is complete control"}}, "data": [{"molecule": "CCn1nc(C(C)(C)C)cc1C(=O)Nc1cccc(C(=O)N2CCCC2)n1", "note": "[Compound 245]", "values": [{"measurement": "Barnyardgrass plant response rating", "setting": "[1]; [23]", "result": 0}, {"measurement": "Barnyardgrass plant response rating", "setting": "[1]; [24]", "result": 35}, {"measurement": "Barnyardgrass plant response rating", "setting": "[1]; [25]", "result": 45}, {"measurement": "Plant response rating, Barnyardgrass", "setting": "[1]; [26]", "result": 70}, {"measurement": "Barnyardgrass plant response rating (0 to 100 scale)", "setting": "[2]; [27]", "result": 70}, {"measurement": "Plant response rating, Barnyardgrass", "setting": "[2]; [28]", "result": 100}, {"measurement": "Barnyardgrass plant response rating", "setting": "[2]; 125 g ai/ha, visual rating", "result": 40}, {"measurement": "Barnyardgrass plant response rating", "setting": "[2]; 500 g ai/ha, visual rating", "result": 70}, {"measurement": "Pigweed plant response rating (0 to 100 scale)", "setting": "[3]; [27]", "result": 100}, {"measurement": "Plant response rating, Pigweed", "setting": "[3]; [28]", "result": 100}, {"measurement": "Pigweed plant response rating", "setting": "[3]; [29]", "result": 60}, {"measurement": "Pigweed plant response rating", "setting": "[3]; [30]", "result": 80}, {"measurement": "Sedge, Umbrella plant response rating", "setting": "[4]", "result": 50}, {"measurement": "Rice plant response rating", "setting": "[5]; [23]", "result": 25}, {"measurement": "Rice plant response rating", "setting": "[5]; [24]", "result": 65}, {"measurement": "Rice plant response rating", "setting": "[5]; [25]", "result": 70}, {"measurement": "Plant response rating, Rice", "setting": "[5]; [26]", "result": 70}, {"measurement": "Rice plant response rating (0 to 100 scale)", "setting": "[6]; 125 g ai/ha", "result": 20}, {"measurement": "Plant response rating, Rice", "setting": "[6]; 500 g ai/ha, visual rating", "result": 50}, {"measurement": "Oat, Wild plant response rating", "setting": "[7]; [29]", "result": 20}, {"measurement": "Oat, Wild plant response rating", "setting": "[7]; [30]", "result": 30}, {"measurement": "Foxtail, Giant plant response rating (0 to 100 scale)", "setting": "[8]; [27]", "result": 60}, {"measurement": "Plant response rating, Foxtail, Giant", "setting": "[8]; [28]", "result": 90}, {"measurement": "Foxtail, Giant plant response rating", "setting": "[8]; [29]", "result": 30}, {"measurement": "Foxtail, Giant plant response rating", "setting": "[8]; [30]", "result": 60}, {"measurement": "Blackgrass plant response rating", "setting": "[9]; 125 g ai/ha", "result": 0}, {"measurement": "Blackgrass plant response rating", "setting": "[9]; 500 g ai/ha", "result": 0}, {"measurement": "Surinam Grass plant response rating (0 to 100 scale)", "setting": "[10]; [27]", "result": 40}, {"measurement": "Plant response rating, Surinam Grass", "setting": "[10]; [28]", "result": 80}, {"measurement": "Surinam Grass plant response rating", "setting": "[10]; [29]", "result": 30}, {"measurement": "Surinam Grass plant response rating", "setting": "[10]; [30]", "result": 60}, {"measurement": "Velvetleaf plant response rating (0 to 100 scale)", "setting": "[11]; [27]", "result": 40}, {"measurement": "Plant response rating, Velvetleaf", "setting": "[11]; [28]", "result": 90}, {"measurement": "Velvetleaf plant response rating", "setting": "[11]; [29]", "result": 70}, {"measurement": "Velvetleaf plant response rating", "setting": "[11]; [30]", "result": 80}, {"measurement": "Ducksalad plant response rating", "setting": "[12]", "result": 80}, {"measurement": "Barnyardgrass plant response rating", "setting": "[13]", "result": 90}, {"measurement": "Crabgrass, Large plant response rating (0 to 100 scale)", "setting": "[14]; [27]", "result": 60}, {"measurement": "Plant response rating, Crabgrass, Large", "setting": "[14]; [28]", "result": 100}, {"measurement": "Crabgrass, Large plant response rating", "setting": "[14]; [29]", "result": 10}, {"measurement": "Crabgrass, Large plant response rating", "setting": "[14]; [30]", "result": 50}, {"measurement": "Ducksalad plant response rating", "setting": "[15]; [23]", "result": 60}, {"measurement": "Ducksalad plant response rating", "setting": "[15]; [24]", "result": 75}, {"measurement": "Ducksalad plant response rating", "setting": "[15]; [25]", "result": 75}, {"measurement": "Plant response rating, Ducksalad", "setting": "[15]; [26]", "result": 75}, {"measurement": "Sedge, Umbrella plant response rating", "setting": "[16]; [23]", "result": 55}, {"measurement": "Sedge, Umbrella plant response rating", "setting": "[16]; [24]", "result": 70}, {"measurement": "Sedge, Umbrella plant response rating", "setting": "[16]; [25]", "result": 70}, {"measurement": "Plant response rating, Sedge, Umbrella", "setting": "[16]; [26]", "result": 70}, {"measurement": "Wheat plant response rating", "setting": "[17]; [29]", "result": 10}, {"measurement": "Wheat plant response rating", "setting": "[17]; [30]", "result": 20}, {"measurement": "Corn plant response rating (0 to 100 scale)", "setting": "[18]; [27]", "result": 0}, {"measurement": "Plant response rating, Corn", "setting": "[18]; [28]", "result": 10}, {"measurement": "Corn plant response rating", "setting": "[18]; [29]", "result": 10}, {"measurement": "Corn plant response rating", "setting": "[18]; [30]", "result": 30}, {"measurement": "Morningglory plant response rating (0 to 100 scale)", "setting": "[19]; [27]", "result": 10}, {"measurement": "Plant response rating, Morningglory", "setting": "[19]; [28]", "result": 20}, {"measurement": "Morningglory plant response rating", "setting": "[19]; [29]", "result": 10}, {"measurement": "Morningglory plant response rating", "setting": "[19]; [30]", "result": 60}, {"measurement": "Cocklebur plant response rating (0 to 100 scale)", "setting": "[20]; [27]", "result": 0}, {"measurement": "Plant response rating, Cocklebur", "setting": "[20]; [28]", "result": 0}, {"measurement": "Cocklebur plant response rating", "setting": "[20]; 125 g ai/ha, visual rating", "result": 40}, {"measurement": "Cocklebur plant response rating", "setting": "[20]; 500 g ai/ha, visual rating", "result": 80}, {"measurement": "Lambsquarters plant response rating (0 to 100 scale)", "setting": "[21]; [27]", "result": 90}, {"measurement": "Plant response rating, Lambsquarters", "setting": "[21]; [28]", "result": 100}, {"measurement": "Lambsquarters plant response rating", "setting": "[21]; [29]", "result": 80}, {"measurement": "Lambsquarters plant response rating", "setting": "[21]; [30]", "result": 90}, {"measurement": "Rice plant response rating", "setting": "[22]", "result": 80}]}]}
